Consider four molecules from patent publication US12643926B2, “LysM receptor motifs” (Aarhus Universitet, priority 2020, dated 2026).

Assay [1] has as its target T1, Medicago truncatula NFP ectodomain, wild type (residues 28-246) (Medicago truncatula, UniProt Q0GXS4).
T1 construct: The M. truncatula NFP ectodomain (residues 28-246); AcMNPV gp67 signal peptide, replaces the native signal peptide (N); hexa-histidine (C); made in house; host or cells: Sf9 insect cells (Spodoptera frugiperda), baculovirus
As to the kind of experiment: biolayer interferometry (BLI) binding of S. meliloti Nod factor LCO-IV to NFP WT ectodomain. The note with it: n = 7. As for the experimental part: (§1) The M. truncatula NFP ectodomain (residues 28-246) was codon-optimized for insect cell expression (Genscript, Piscataway, USA) and cloned into the pOET4 baculovirus transfer vector (Oxford Expression Technologies). The native NFP signal peptide (residues 1-27, predicted by SignalP 4.1) was replaced with the AcMNPV gp67 signal peptide to facilitate secretion and a hexa-histidine tag was added to the C-terminus. Recombinant baculoviruses were produced in […] (Spodoptera frugiperda) using the FlashBac Gold kit (Oxford Expression technologies) according to the manufacturer's instructions with Lipofectin (ThermoFisher Scientific) as a transfection reagent. Protein expression was performed as follows. Suspension-cultured Sf9 cells were maintained with shaking at 299 K in serum-free MAX-XP (BD-Biosciences, discontinued) or HyClone SFX (GE Healthcare) medium supplemented with 1% Pen-Strep (10000 U/ml, Life technologies) and 1% CD lipid concentrate (Gibco). Protein expression was induced by adding recombinant passage 3 virus once the Sf9 cells reached a cell density of 1.0*10^6 cells/ml. After 5-7 days of expression, medium supernatant containing NFP ectodomains was harvested by centrifugation. This was followed by an overnight dialysis step against 50 mM Tris-HCl pH 8, 200 mM NaCl at 277 K. The NFP ectodomain was enriched by two subsequent steps of Ni-IMAC purification (HisTrap excel/HisTrap HP, both GE Healthcare). For crystallography, N-glycans were removed using the endoglycosidase PNGase F (1:15 (w/w), room temperature, overnight). As a final purification step, NFP ectodomains was purified by SEC on a Superdex 200 10/300 or HiLoad Superdex 200 16/600 (both GE Healthcare) in phosphate buffered saline at pH 7.2 supplemented to a total of 500 mM NaCl (for binding assays) or 50 mM Tris-HCl, 200 mM NaCl (for crystallography). NFP ectodomain eluted as a single, homogeneous peak corresponding to a monomer.
(§2) The binding assay using NFP wild type (WT) was replicated seven times, while the binding assay using the NFP mutant NFP L147D L154D was replicated four times.
Binding of NFP WT and NFP L147D/L154D mutant to S. meliloti Nod factor LCO-IV was measured on an Octet RED 96 system (Pall ForteBio). […] Equilibrium dissociation constants derived from the steady-state were determined by applying a non-linear regression (one site, specific binding) to the response at equilibrium plotted against the protein concentration. Kinetic parameters were determined by non-linear regression (association followed by dissociation) on the subtracted data. […]

Assay [2] concerns the target T2, Medicago truncatula NFP ectodomain (residues 28-246) double mutant L147D L154D (Medicago truncatula, UniProt Q0GXS4, L147D/L154D).
T2 construct: The M. truncatula NFP ectodomain (residues 28-246); AcMNPV gp67 signal peptide, replaces the native signal peptide (N); hexa-histidine (C); made in house; host or cells: Sf9 insect cells (Spodoptera frugiperda), baculovirus
As to the kind of experiment: biolayer interferometry (BLI) binding of S. meliloti Nod factor LCO-IV to NFP L147D L154D ectodomain. The note with it: double mutant vs WT. As for the experimental part: as §1
The M. truncatula NFP leucine residues L147 and L154 were replaced with aspartate residues. Aspartate is similar in size to leucine, but negatively charged where leucine is hydrophobic. Point mutants of NFP were engineered using site-directed mutagenesis. In particular, a double-mutated NFP was engineered where the leucine residues L147 and L154 were replaced with aspartate residues to create the mutant NFP L147D L154D. Point mutated versions of the NFP ectodomain were expressed and purified as described above.
as §2
(§3) Binding of NFP WT and NFP L147D/L154D mutant to S. meliloti Nod factor LCO-IV was measured on an Octet RED 96 system (Pall ForteBio). S. meliloti Nod factor LCO-IV consists of a tetrameric/pentameric N-acetylglucosamine backbone that is O-sulfated on the reducing terminal residue, O-acetylated on the non-reducing terminal residue, and mono-N-acylated by unsaturated C16 acyl groups. Biotinylated ligand conjugates were immobilized on streptavidin biosensors (kinetic quality, Pall ForteBio) at a concentration of 125-250 nM for 5 minutes. The binding assays were replicated 7 times for the NFP WT, and 4 times for the NFP L147D/L154D mutant. Data analysis was performed in GraphPad Prism 6 software (GraphPad Software, Inc.). Equilibrium dissociation constants derived from the steady-state were determined by applying a non-linear regression (one site, specific binding) to the response at equilibrium plotted against the protein concentration. Kinetic parameters were determined by non-linear regression (association followed by dissociation) on the subtracted data. Table 9 summarizes the kinetic parameters of FIGS. 18C-18D, with goodness of fit described by the global fit R^2 on the mean value of each point, and number of replicates performed using independent protein preparations (n) indicated.

In assay [3] the test system is L. japonicus nfr1-1 loss-of-function mutant. As to the kind of experiment: Nodulation assay: complementation of L. japonicus nfr1-1 hairy roots after M. loti R7A DsRed inoculation. Format: in vivo, Lotus japonicus. The note with it: Nfr1 promoter, five weeks post inoculation. As for the experimental part:
A. rhizogenes carrying the expression constructs of interest were grown for two days on solid medium. The cells of one plate were resuspended in 2 ml YMB media, and this process was repeated for each construct. A 1 ml syringe with a needle (Sterican Ø0.40×20 mm) was then used to transform the plants, whereby the needle was used to puncture the hypocotyl and a droplet with the bacterial suspension was placed on the wound. Petri dishes containing the transformed roots were sealed and left in the dark for two days and then moved to 21° C. under 16 hour light/8 hour dark conditions. After three weeks, plants with transformed roots were moved to Magenta boxes (Sigma-Aldrich) filled with a 4:1 mixture of lightweight expanded clay aggregate (LECA, 2-4 mm; Saint-Gobain Weber A/S) and vermiculite (size M; Damolin A/S) supplemented with 80 ml nitrogen-free ¼× B&D nutrient solution. All plants were grown at 21° C. under 16 hour light/8 hour dark conditions.
Chimeric receptors under the control of the Nfr1 promoter were tested for their ability to complement a L. japonicus nfr1-1 loss-of-function mutant that is unable to develop root nodules (Radutoiu, S. et al. Nature 2003 425). […] At five weeks post inoculation, nodules were counted and images were acquired with a Leica FluoStereo M165FC microscope equipped with the Leica DFC310 FX camera. […]

Assay [4] in a line: Biolayer interferometry of A. thaliana CERK1 binding to chitin fragments. The note with it: BLI; CO5 and CO8; result in words. How it is done:
as §3, with “Table 9 summarizes the kinetic parameters of FIGS. 18C-18D, with goodness of fit described by the global fit R^2 on the mean value of each point, and number of replicates performed using independent protein preparations (n) indicated.” left out
Binding of A. thaliana CERK1 (AtCERK1) to chitopentaose (CO5) and chitooctaose (CO8) was measured in the same way.

For assay [5], the system named is M. truncatula nfp mutants. As to the kind of experiment: Complementation assay of M. truncatula nfp mutants, inoculation with S. meliloti strain 2011. Format: in vivo, Medicago truncatula. The note with it: nfp mutant roots; 6-7 weeks after inoculation with S. meliloti strain 2011. An excerpt: Construct assembly, plant growth conditions, hairy root transformations, nodulation and ROS assays were generally conducted as described in Bozsoki, et al. 2017 (Bozsoki, Z. et al. Proc. Natl. Acad. Sci. 2017 114: E8118-E8127). The tested transgenes were the mutated LysM receptors described above.

“Also recorded” adds a separate entry of the source. Like-named read-outs stand apart in the source and are kept apart here.

T2 sequence (Q0GXS4 28-246 L147D/L154D): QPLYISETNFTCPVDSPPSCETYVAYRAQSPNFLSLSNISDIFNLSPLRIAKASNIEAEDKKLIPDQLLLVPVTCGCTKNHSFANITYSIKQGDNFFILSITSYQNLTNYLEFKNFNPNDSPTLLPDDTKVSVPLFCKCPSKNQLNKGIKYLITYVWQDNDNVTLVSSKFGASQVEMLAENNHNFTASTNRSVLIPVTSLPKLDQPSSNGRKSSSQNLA

With `CCCCCC/C=C\CCCCC/C=C/C(=O)N[C@H]1[C@H](O[C@H]2[C@H](O)[C@@H](NC(C)=O)[C@H](O[C@H]3[C@H](O)[C@@H](NC(C)=O)[C@H](O[C@H]4[C@H](O)[C@@H](NC(C)=O)C(O)O[C@@H]4COS(=O)(=O)O)O[C@@H]3CO)O[C@@H]2CO)O[C@H](COC(C)=O)[C@@H](O)[C@@H]1O` (stereo partly shown) [S. meliloti Nod factor LCO-IV], in assay [1] (Table 8, read-out: A (converted)), the kon is 0.958 M⁻¹ s⁻¹. Besides, in assay [1] (Table 8, read-out: D (converted)), the koff is 2.48e-05 s⁻¹. Also, the koff in assay [1] (Table 9, BLI, read-out: koff) is 0.00064 s⁻¹. Besides, in assay [1] (Table 9, BLI, read-out: kon), the kon is 50.3 M⁻¹ s⁻¹. Further, in assay [2], the “affinity versus NFP WT (Table 8 data)” value was “approximately two times lower affinity”; the “association (Kon) versus NFP WT (Table 8 data)” value is “almost unaffected”; the “association rate (kon), fold faster than WT (Table 9 data)” value is listed as 4.5 fold; the “dissociation (Koff), times faster than NFP WT (Table 8 data)” value is “approximately 15 times”. In assay [2], the “dissociation rate (koff), fold increase over WT (Table 9 data)” value stood at 59 fold and the “lower affinity compared to WT NFP ectodomain (Table 9 data)” value is on record as 13 fold.

B1: construct 41: Nfr1 promoter; LYK3 (protein, UniProt Q6UD73 1-620, looked up)
chain: MNLKNGLLLFILFLDCVFFKVESKCVKGCDVALASYYIIPSIQLRNISNFMQSKIVLTNSFDVIMSYNRDVVFDKSGLISYTRINVPFPCECIGGEFLGHVFEYTTKEGDDYDLIANTYYASLTTVELLKKFNSYDPNHIPVKAKINVTVICSCGNSQISKDYGLFVTYPLRSDDTLAKIATKAGLDEGLIQNFNQDANFSIGSGIVFIPGRDQNGHFFPLYSRTGIAKGSAVGIAMAGIFGLLLFVIYIYAKYFQKKEEEKTKLPQTSRAFSTQDASGSAEYETSGSSGHATGSAAGLTGIMVAKSTEFTYQELAKATNNFSLDNKIGQGGFGAVYYAELRGEKTAIKKMDVQASSEFLCELKVLTHVHHLNLVRLIGYCVEGSLFLVYEHIDNGNLGQYLHGIGTEPLPWSSRVQIALDSARGLEYIHEHTVPVYIHRDVKSANILIDKNLRGKVADFGLTKLIEVGNSTLHTRLVGTFGYMPPEYAQYGDVSPKIDVYAFGVVLYELITAKNAVLKTGESVAESKGLVQLFEEALHRMDPLEGLRKLVDPRLKENYPIDSVLKMAQLGRACTRDNPLLRPSMRSIVVALMTLSSPTEDCDDDSSYENQSLINLLSTR
modifications: full-length expressed from Nfr1 promoter
notes: Nfr1 promoter; LYK3
Consider B1, for which, in assay [3], the “nodule formation (complementation of nfr1)” value was “absence of nodulation; also recorded: signaling incompetent”.

B2: A. thaliana CERK1: A. thaliana LysM chitin receptor CERK1 (protein, UniProt A8R7E6 24-617, looked up)
Chitin elicitor receptor …: KCRTSCPLALASYYLENGTTLSVINQNLNSSIAPYDQINFDPILRYNSNIKDKDRIQMGSRVLVPFPCECQPGDFLGHNFSYSVRQEDTYERVAISNYANLTTMESLQARNPFPATNIPLSATLNVLVNCSCGDESVSKDFGLFVTYPLRPEDSLSSIARSSGVSADILQRYNPGVNFNSGNGIVYVPGRDPNGAFPPFKSSKQDGVGAGVIAGIVIGVIVALLLILFIVYYAYRKNKSKGDSFSSSIPLSTKADHASSTSLQSGGLGGAGVSPGIAAISVDKSVEFSLEELAKATDNFNLSFKIGQGGFGAVYYAELRGEKAAIKKMDMEASKQFLAELKVLTRVHHVNLVRLIGYCVEGSLFLVYEYVENGNLGQHLHGSGREPLPWTKRVQIALDSARGLEYIHEHTVPVYVHRDIKSANILIDQKFRAKVADFGLTKLTEVGGSATRGAMGTFGYMAPETVYGEVSAKVDVYAFGVVLYELISAKGAVVKMTEAVGEFRGLVGVFEESFKETDKEEALRKIIDPRLGDSYPFDSVYKMAELGKACTQENAQLRPSMRYIVVALSTLFSSTGNWDVGNFQNEDLVSLMSGR
Turning to B2, in assay [4], the “binding kinetics to chitin fragments” value is “fast association and dissociation rates”.

B3: wild type M. truncatula NFP gene: wild type M. truncatula NFP transgene used to transform nfp mutant roots (protein, UniProt Q0GXS4 1-595, looked up)
chain: MSAFFLPSSSHALFLVLMLFFLTNISAQPLYISETNFTCPVDSPPSCETYVAYRAQSPNFLSLSNISDIFNLSPLRIAKASNIEAEDKKLIPDQLLLVPVTCGCTKNHSFANITYSIKQGDNFFILSITSYQNLTNYLEFKNFNPNLSPTLLPLDTKVSVPLFCKCPSKNQLNKGIKYLITYVWQDNDNVTLVSSKFGASQVEMLAENNHNFTASTNRSVLIPVTSLPKLDQPSSNGRKSSSQNLALIIGISLGSAFFILVLTLSLVYVYCLKMKRLNRSTSSSETADKLLSGVSGYVSKPTMYEIDAIMEGTTNLSDNCKIGESVYKANIDGRVLAVKKIKKDASEELKILQKVNHGNLVKLMGVSSDNDGNCFLVYEYAENGSLEEWLFSESSKTSNSVVSLTWSQRITIAMDVAIGLQYMHEHTYPRIIHRDITTSNILLGSNFKAKIANFGMARTSTNSMMPKIDVFAFGVVLIELLTGKKAMTTKENGEVVILWKDFWKIFDLEGNREERLRKWMDPKLESFYPIDNALSLASLAVNCTADKSLSRPTIAEIVLCLSLLNQPSSEPMLERSLTSGLDAEATHVVTSVIAR
modifications: full-length
notes: wild type M. truncatula NFP transgene used to transform nfp mutant roots
Consider B3, for which the “average nodules per plant” value in assay [5] is given as 10 nodules per plant.
